{
  "source": "patent US9981970B2",
  "about": "“Bicyclic ureas and thiadiazolidine-1, 1-dioxides as CETP inhibitors” (Merck Sharp & Dohme Corp., priority 2013, dated 2018)",
  "note": "pIC50: −log10 of the molar value.",
  "data": [
    {"target": "T1, endogenous CETP from serum (Homo sapiens, UniProt P11597)", "T1 construct": "yielding a concentration of approximately 15 nM endogenous CETP in the assay; from tissue; host or cells: human serum", "T1 sequence (P11597 18-493)": "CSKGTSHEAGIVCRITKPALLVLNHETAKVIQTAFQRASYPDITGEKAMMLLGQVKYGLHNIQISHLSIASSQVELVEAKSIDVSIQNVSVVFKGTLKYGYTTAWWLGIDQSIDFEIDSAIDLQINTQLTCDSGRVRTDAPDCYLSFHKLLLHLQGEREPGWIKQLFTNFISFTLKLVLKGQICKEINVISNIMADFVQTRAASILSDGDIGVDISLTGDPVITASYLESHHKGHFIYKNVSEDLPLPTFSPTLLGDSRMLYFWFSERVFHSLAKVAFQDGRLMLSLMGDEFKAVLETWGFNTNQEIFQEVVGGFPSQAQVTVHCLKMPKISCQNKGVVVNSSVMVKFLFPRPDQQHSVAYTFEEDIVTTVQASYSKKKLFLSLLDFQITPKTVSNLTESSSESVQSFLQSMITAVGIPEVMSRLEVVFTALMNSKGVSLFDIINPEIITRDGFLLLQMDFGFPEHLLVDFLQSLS", "test": "RTA assay in 95% human serum (in vitro radioactive assay of CETP-catalyzed CE and TG transfer)", "assay_type": "biochemical", "conditions": "RTA assay in 95% human serum, endogenous CETP; read-out: RTA (95% HS)", "source_text": "(§1) In Vitro Radioactive Assays of CETP-Catalyzed CE and TG Transfer (RTA Assay)\n(§2) Reagents and sources are: [3H] cholesteryl oleate (GE #TRK.886), [3H] Triolein (Perkin-Elmer NET-431), Butylated hydroxyl toluene (Aldrich, #D4740-4), DOPC (Sigma, # P6354), Sodium Bromide (Fisher scientific #S255-500), PEG 8000 (Fisher, #BP233-1), and human HDL (Intracel Corp #RP-036).\n(§3) Both assays measure the transfer of [3H] cholesteryl oleate or [3H] triolein from exogenous LDL to HDL.\n(§4) Radiolabeled donor particles are generated by first combining 100 μl of 200 μM butylated hydroxyl toluene in CHCl3, 216 μL of 21.57 mM DOPC in EtOH, and either 500 μCi [3H]-triolein (Perkin Elmer #NET-431) or 500 μCi [3H]-cholesteryl oleate (GE #TRK886) in a glass tube. Reagents are mixed, dried under nitrogen, and then resuspended in 2 mL of 50 mM Tris, 27 μM EDTA at pH 7.4. After a brief vortex, the solution is sonicated until clear and mixed with 20 mL of fresh human serum. The mixture is incubated overnight at 37° C. The [3H] labeled LDL substrate is separated at 1.063 g/ml density by sequential ultracentrifugal flotation in NaBr according to the method of Havel, Eder, et al., 1955, and Chapman, Goldstein, et al., 1981. Once isolated the particles are dialyzed 3× in CETP buffer (50 mM Tris, pH 7.4, 100 mM NaCl, 1 mM EDTA). Human HDL is purchased from Intracel and used as the acceptor particles.\n(§5) Transfer assays are performed in a 96-well v-bottom polypropylene plate. For the RTA using recombinant CETP (2% RTA), an assay cocktail is prepared with the final concentrations 128 μg/mL HDL, 20 nM rCETP, 2% human serum, and 1×CETP buffer. 1 μL of each test compound diluted in DMSO is added to 47 μL of assay cocktail per well and incubated at 37° C. for 1 hour. To initiate the transfer reaction, 2 μL radiolabeled LDL is added. After an additional 60 min of incubation at 37° C., the transfer action is terminated by precipitation of LDL with an equal volume of 20% WN PEG 8000. The plates are centrifuged at 2000 rpm for 30 minutes at 4° C. A 40 μL aliquot of the HDL-containing supernatant is transferred to a Packard Optiplate™ with 200 μL of MicroScint™ 20. After mixing, plates are counted by liquid scintillation. Counts present in the supernatant for blanks (wells containing only HDL acceptor, CETP buffer and DMSO) are subtracted from those containing test compounds and used to correct for non-specific transfer.\n(§6) This is then combined with HDL and CETP buffer and the reaction proceeds as above and is terminated as described.\n(§7) Comparison of the counts of samples with inhibitors to an uninhibited (DMSO only) positive control yield a percent inhibition. A plot of percent inhibition vs. log of inhibitor concentration, fit to a Sigmoidal 4 parameter equation is used to calculate IC50.\n(§8) Starting materials are commercially available or are made using known procedures or as shown below. The examples may be synthesized according to the general schemes provided below and by using the synthetic intermediates that are described. […] When compounds of Formula I are mentioned herein, such compounds include compounds defined generically by Formula I and also the specific examples disclosed herein.", "values": [
      {"smiles": "COc1ncc(-c2ccc(C(=O)O)cc2C)cc1-c1ccc(C(F)(F)F)cc1[C@@H]1CC[C@H]2[C@@H](c3cc(C(F)(F)F)cc(C(F)(F)F)c3)NC(=O)N12", "note": "[Example 1, 4-(5-(2-((1R,5 S,7aS)-1-(3,5-bis(trifluoromethyl)phenyl)-3-oxohexahydro-1H-pyrrolo[1,2-c]imidazol-5-yl)-4-(trifluoromethyl)phenyl)-6-methoxypyridin-3-yl)-3-methylbenzoic acid]", "pIC50": 6.47},
      {"smiles": "COc1ncc(-c2ccc(C(=O)NC3(C#N)CC3)cc2C)cc1-c1ccc(C(F)(F)F)cc1[C@@H]1CC[C@H]2[C@@H](c3cc(C(F)(F)F)cc(C(F)(F)F)c3)NC(=O)N12", "note": "[Example 2, 4-{5-[2-{(1R,5S,7aS)-1-[3,5-bis(trifluoromethyl)phenyl]-3-oxohexahydro-1H-pyrrolo[1,2-c]imidazol-5-yl}-4-(trifluoromethyl)phenyl]-6-methoxypyridin-3-yl}-N-(1-cyanocyclopropyl)-3-methylbenzamide]", "pIC50": 6.56},
      {"smiles": "COc1ccc(C2CCC(C(=O)O)CC2)cc1-c1ccc(C(F)(F)F)cc1[C@@H]1CC[C@H]2[C@@H](c3cc(C(F)(F)F)cc(C(F)(F)F)c3)NC(=O)N12", "note": "(stereo partly drawn) [Example 3, 4-(2′-((1R,5 S,7aS)-1-(3,5-bis(trifluoromethyl)phenyl)-3-oxohexahydro-1H-pyrrolo[1,2-c]imidazol-5-yl)-6-methoxy-4′-(trifluoromethyl)-[1,1′-biphenyl]-3-yl)cyclohexanecarboxylic acid]", "pIC50": 5.76}
    ]},
    {"target": "T1, endogenous CETP from serum", "test": "RTA assay in 95% human serum (in vitro radioactive assay of CETP-catalyzed CE and TG transfer)", "assay_type": "biochemical", "conditions": "Table 1; data generally obtained using the RTA assay in 95% human serum; read-out: IC50", "source_text": "as §1, §2, §3, §4, §5, §6, §7, §8", "values": [
      {"smiles": "COc1ncc(-c2ccc(C(=O)O)cc2C)cc1-c1ccc(C(F)(F)F)cc1[C@@H]1CC[C@H]2[C@@H](c3cc(C(F)(F)F)cc(C(F)(F)F)c3)N(C)C(=O)N12", "note": "[Example 4, 4-{5-[2-{(1R,5S,7aS)-1-[3,5-bis(trifluoromethyl)phenyl]-2-methyl-3-oxohexahydro-1H-pyrrolo[1,2-c]imidazol-5-yl}-4-(trifluoromethyl)phenyl]-6-methoxypyridin-3-yl}-3-methylbenzoic acid]", "pIC50": 5.82},
      {"smiles": "COc1ncc(-c2c(C)cc(C(=O)O)cc2C)cc1-c1ccc(C(F)(F)F)cc1[C@@H]1CC[C@H]2[C@@H](c3cc(C(F)(F)F)cc(C(F)(F)F)c3)NC(=O)N12", "note": "[Example 5, 4-{5-[2-{(1R,5S,7aS)-1-[3,5-bis(trifluoromethyl)phenyl]-3-oxohexahydro-1H-pyrrolo[1,2-c]imidazol-5-yl}-4-(trifluoromethyl)phenyl]-6-methoxypyridin-3-yl}-3,5-dimethylbenzoic acid]", "pIC50": 6.41},
      {"smiles": "COc1cc(F)c(C(C)C)cc1-c1ccc(C(F)(F)F)cc1[C@@H]1CC[C@H]2[C@@H](c3cc(F)cc(C(F)(F)F)c3)NC(=O)N12", "note": "[Example 6]", "pIC50": 5.97},
      {"smiles": "COc1ccc(CCC(=O)O)cc1-c1ccc(C(F)(F)F)cc1[C@@H]1CC[C@H]2[C@@H](c3cc(C(F)(F)F)cc(C(F)(F)F)c3)NC(=O)N12", "note": "[Example 7, 3-[2′-{(1R,5S,7aS)-1-[3,5-bis(trifluoromethyl)phenyl]-3-oxohexahydro-1H-pyrrolo[1,2-c]imidazol-5-yl}-6-methoxy-4′-(trifluoromethyl)biphenyl-3-yl]propanoic acid]", "pIC50": 5.92},
      {"smiles": "COc1ccc(-c2ccc(C(=O)O)cc2C)cc1-c1ccc(C(F)(F)F)cc1[C@@H]1CC[C@H]2[C@@H](c3cc(C(F)(F)F)cc(C(F)(F)F)c3)NC(=O)N12", "note": "[Example 9]", "pIC50": 5.87},
      {"smiles": "COc1ccc(CCC(=O)O)cc1-c1ccc(C(F)(F)F)cc1[C@@H]1CC[C@H]2[C@@H](c3cc(C(F)(F)F)cc(C(F)(F)F)c3)N(C)C(=O)N12", "note": "[Example 10, 3-[2′-{(1R,5S,7aS)-1-[3,5-bis(trifluoromethyl)phenyl]-2-methyl-3-oxohexahydro-1H-pyrrolo[1,2-c]imidazol-5-yl}-6-methoxy-4′-(trifluoromethyl)biphenyl-3-yl]propanoic acid]", "pIC50": 5.53},
      {"smiles": "COc1ccc(-c2ccc(C(=O)O)cc2C)cc1-c1ccc(C(F)(F)F)cc1[C@@H]1CC[C@H]2[C@@H](c3cc(C(F)(F)F)cc(C(F)(F)F)c3)N(C)C(=O)N12", "note": "[Example 12, 2″-{(1R,5S,7aS)-1-[3,5-bis(trifluoromethyl)phenyl]-2-methyl-3-oxohexahydro-1H-pyrrolo[1,2-c]imidazol-5-yl}-4′-methoxy-2-methyl-4″-(trifluoromethyl)-l,1′:3′,l″-terphenyl-4-carboxylic acid]", "pIC50": 5.85},
      {"smiles": "COc1ccc(-c2cccnc2C)cc1-c1ccc(C(F)(F)F)cc1[C@@H]1CC[C@H]2[C@@H](c3cc(C(F)(F)F)cc(C(F)(F)F)c3)NC(=O)N12", "note": "[Example 13, (1R,5S,7aS)-1-[3,5-bis(trifluoromethyl)phenyl]-5-[2′-methoxy-5′-(2-methylpyridin-3-yl)-4-(trifluoromethyl)biphenyl-2-yl]hexahydro-3H-pyrrolo[1,2-c]imidazol-3-one]", "pIC50": 6.10},
      {"smiles": "COc1ccc(-c2ccc(C(=O)O)nc2C)cc1-c1ccc(C(F)(F)F)cc1[C@@H]1CC[C@H]2[C@@H](c3cc(C(F)(F)F)cc(C(F)(F)F)c3)NC(=O)N12", "note": "[Example 14, 5-[2′-{(1R,5S,7aS)-1-[3,5-bis(trifluoromethyl)phenyl]-3-oxohexahydro-1H-pyrrolo[1,2-c]imidazol-5-yl}-methoxy-4′-(trifluoromethyl)biphenyl-3-yl]-6-methylpyridine-2-carboxylic acid]", "pIC50": 5.71},
      {"smiles": "COc1ccc([C@H]2[C@H](C)C(=O)N[C@@H]2C)cc1-c1ccc(C(F)(F)F)cc1[C@@H]1CC[C@H]2[C@@H](c3cc(C(F)(F)F)cc(C(F)(F)F)c3)NC(=O)N12", "note": "[Example 15, (1R,5S,7aS)-1-[3,5-bis(trifluoromethyl)phenyl]-5-{5′-[(2R,3R,4S)-2,4-dimethyl-5-oxopyrrolidin-3-yl]-2′-methoxy-4-(trifluoromethyl)biphenyl-2-yl}hexahydro-3H-pyrrolo[1,2-c]imidazol-3-one]", "pIC50": 5.76},
      {"smiles": "COc1ccc(-c2ccc(C(=O)O)cc2C)cc1-c1ccc(C(F)(F)F)cc1[C@@H]1CC[C@H]2[C@@H](c3cc(F)cc(C(F)(F)F)c3)NC(=O)N12", "note": "[Example 16, 2″-{(1R,5S,7aS)-1-[3-fluoro-5-(trifluoromethyl)phenyl]-3-oxohexahydro-1H-pyrrolo[1,2-c]imidazol-5-yl}-4′-methoxy-2-methyl-4″-(trifluoromethyl)-1,1′:3′,1″-terphenyl-4-carboxylic acid]", "pIC50": 5.82},
      {"smiles": "COc1ccc(CCC(=O)O)cc1-c1ccc(C(F)(F)F)cc1[C@@H]1CC[C@H]2[C@@H](c3cc(F)cc(C(F)(F)F)c3)NC(=O)N12", "note": "[Example 17, 3-[2′-{(1R,5S,7aS)-1-[3-fluoro-5-(trifluoromethyl)phenyl]-3-oxohexahydro-1H-pyrrolo[1,2-c]imidazol-5-yl}-6-methoxy-4′-(trifluoromethyl)biphenyl-3-yl]propanoic acid]", "pIC50": 5.50},
      {"smiles": "COc1ncc(-c2ccc(C(=O)O)cc2C)cc1-c1ccc(C(F)(F)F)cc1[C@@H]1CC[C@H]2[C@@H](c3ccnc(C(F)(F)F)c3)NC(=O)N12", "note": "[Example 18, 4-{6-methoxy-5-[2-{(1R,5S,7aS)-3-oxo-1-[2-(trifluoromethyl)pyridin-4-yl]hexahydro-1H-pyrrolo[1,2-c]imidazol-5-yl}-4-(trifluoromethyl)phenyl]pyridin-3-yl}-3-methylbenzoic acid]", "pIC50": 5.30}
    ]}
  ]
}
